Here are results for two compounds from patent publication US20210177795A1 (priority 2017, published 2021).

For the series the following is noted: mouse, in vivo.

Peptide text beside a SMILES is read from it. * marks the point of attachment. X1 = CCCCCCCCCCCCCCCC(=O)OCC(C*)OC(=O)CCCCCCCCCCCCCCC

As for `CCCCCCCCCCCCCCCC(=O)OCC(CSC[C@H](N)C(=O)N[C@@H](CO)C(=O)N[C@@H](CO)C(=O)NCCOCCOCCOCCOCCOCCOCCOCCOCCOCCOCCOCCOCCC(=O)NCC(N)=O)OC(=O)CCCCCCCCCCCCCCC` (some centres unmarked) [INNA-003, PEG-S—S-Pam2Cys], the highest weight loss is recorded as 4.67%±2.12%. As to `CCCCCCCCCCCCCCCC(=O)OCC(CSC[C@H](N)C(=O)N[C@@H](CO)C(=O)N[C@@H](CCCCN)C(=O)N[C@@H](CCCCN)C(=O)N[C@@H](CCCCN)C(=O)N[C@@H](CCCCN)C(=O)O)OC(=O)CCCCCCCCCCCCCCC` (some centres unmarked) [Pam2Cys-SK4, dipalmitoyl-S-glyceryl cysteine-serine-(lysine)4, reference compound] (H-C(X1)SKKKK-OH), the “weight loss relative to baseline” value is given as “little or no weight loss”.
